Usually IC50 stands for the concentration needed to halve the response being measured.

This note sets out measurements from ChEMBL document CHEMBL3217542, “Chiral diaminocyclohexane coupling polyphenols: A new class of anticancer agents” (Medchemcomm, 2012).

Calls of active or inactive are those of the source. No cut-off for these calls is given here.

Experiment [1] concerns MCF7. Kind of experiment: Cytotoxicity against human MCF7 cells after 2 days by SRB assay. In kind it is functional, cell-based. The settings on record: MCF7, 48 h. On the technique in general: In SRB staining, fixed cells bind dye roughly in proportion to their protein.
Experiment [2] in a line: Cytotoxicity against human fibroblasts after 2 days by SRB assay. The class given is cell-based. The settings on record: Fibroblast, 48 h.
The subject of experiment [3] is MCF7. The experiment in a line: Selectivity index, ratio of IC50 for human fibroblasts to IC50 for human MCF7 cells.
Experiment [4] in a line: Cytotoxicity against human HBT-174 cells after 2 days by SRB assay. In kind it is functional, cell-based. Particulars: HBT-174, 48 h.
For the next experiment, the system named is NCI-H460. Kind of experiment: Cytotoxicity against human NCI-H460 cells after 2 days by SRB assay. The class given is functional, cell-based. Particulars: NCI-H460, 48 h.
Experiment [5] is described as follows: Selectivity index, ratio of IC50 for human fibroblasts to IC50 for human HBT-174 cells.
The subject of experiment [6] is MDA-MB-453. Kind of experiment: Cytotoxicity against human MDA-MB-453 cells after 2 days by SRB assay. The settings on record: MDA-MB-453, 48 h. In kind it is functional, cell-based.
For the next experiment, the system named is MDA-MB-231. The experiment in a line: Cytotoxicity against human MDA-MB-231 cells after 2 days by SRB assay. In kind it is functional, cell-based. The settings on record: MDA-MB-231, 48 h.
A further experiment concerns MDA-MB-468. Kind of experiment: Cytotoxicity against human MDA-MB-468 cells after 2 days by SRB assay. The class given is functional, cell-based. Particulars: MDA-MB-468, 48 h.
In another experiment the test system is HBT-174. Kind of experiment: Inhibition of colony formation in human HBT-174 cells assessed as decrease in colony size and number of colony at 0.5 to 5 uM treated every 3 days for 10 days by SRB staining. The class given is functional, cell-based.
The test system of experiment [7] is MCF7. The experiment in a line: Reduction of cyclin-D1 gene expression in human MCF7 cells at 5 uM after 24 hrs by RT-PCR analysis relative to control. The class given is functional. On the set-up: scale not given: the % may be the effect or the level left.
Experiment [8] deals with MCF7. Kind of experiment: Reduction of p53 gene expression in human MCF7 cells at 5 uM after 24 hrs by RT-PCR analysis relative to control. The class given is functional. Also noted: scale not given: the % may be the effect or the level left.
Experiment [9] concerns MCF7. Kind of experiment: Reduction of Bcl-2 gene expression in human MCF7 cells at 5 uM after 24 hrs by RT-PCR analysis relative to control. The class given is functional. Also noted: scale not given: the % may be the effect or the level left.
Experiment [10] concerns MCF7. Kind of experiment: Reduction of Bcl-xL gene expression in human MCF7 cells at 5 uM after 24 hrs by RT-PCR analysis relative to control. The class given is functional. On the set-up: scale not given: the % may be the effect or the level left.
Experiment [11] relates to MDA-MB-453. Kind of experiment: Antimammosphere formation activity in human MDA-MB-453 cells assessed as ALDH positive cells at 1 uM after 4 days relative to control. In kind it is functional.
Experiment [12] concerns MDA-MB-453. The experiment in a line: Antimammosphere formation activity in human MDA-MB-453 cells assessed as ALDH positive cells at 5 uM after 4 days relative to control. The class given is functional.
For experiment [13], the system named is MDA-MB-453. Kind of experiment: Antimammosphere formation activity in human MDA-MB-453 cells assessed as ALDH positive cells at 10 uM after 4 days relative to control. The class given is functional.

`Oc1ccc(CN[C@@H]2CCCC[C@H]2NCc2ccc(O)cc2O)c(O)c1`: the 50% inhibitory concentration (IC50) was 6 µM with MCF7 [1]; 82 µM in [2]; 8.2 µM in experiment [4]; 2.2 µM in the experiment on NCI-H460; 4.5 µM in the experiment with MDA-MB-453 [6]; 4 µM in the experiment with MDA-MB-231. Also, 4.4 µM corresponded to half-maximal inhibition in the experiment with MDA-MB-468 (IC50). In addition, the “Ratio IC50” value in the experiment with MCF7 [3] worked out at 13.7; in experiment [5], 10.

On to `Oc1ccc(O)c(CN[C@@H]2CCCC[C@H]2NCc2cc(O)ccc2O)c1`, for which the IC50 turned out to be 5.2 µM in the experiment with MCF7 [1]; 75 µM in experiment [2]; 8 µM in experiment [4]; 2.4 µM with NCI-H460; 5.2 µM in the experiment on MDA-MB-453 [6]; 3.8 µM in the experiment on MDA-MB-231. The compound also came in with an IC50 in the experiment with MDA-MB-468 of 5.9 µM. The entries for the “Ratio IC50” value (with MCF7 [3]; in experiment [5]) were 14.4 and 9.4, respectively.

Turning to `Oc1cccc(CN[C@@H]2CCCC[C@H]2NCc2cccc(O)c2O)c1O`, the half-maximal inhibitory concentration (IC50) with MCF7 [1] was found to be 4.8 µM; in experiment [2], 106 µM; in experiment [4] it was 6.8 µM; in the experiment with NCI-H460, 1.8 µM; in the experiment on MDA-MB-453 [6], 4.6 µM; in the experiment with MDA-MB-231, 2.4 µM. The same compound displayed a concentration for half-maximal inhibition (IC50) with MDA-MB-468 of 3.3 µM. Further, the “Ratio IC50” value in the experiment on MCF7 [3] stood at 22.1; in experiment [5] it was 15.6. For the same compound, the inhibition result in the experiment on HBT-174 is “Active”. For the same compound, the Activity with MCF7 [7] stood at 24.8%; with MCF7 [8] it was 33.1%; with MCF7 [9], 15.6%; in the experiment with MCF7 [10] it was 22.2%; with MDA-MB-453 [11], 90%; in the experiment with MDA-MB-453 [12], 25%. In addition, in the experiment with MDA-MB-453 [13], the Activity is reported as less than 5%.

For `O=C(O)c1ccc(O)c(CN[C@@H]2CCCC[C@H]2NCc2cc(C(=O)O)ccc2O)c1`, the values for the half-inhibitory concentration (IC50) (in the experiment on MCF7 [1]; in experiment [2]) were 8.4 µM and 108 µM, respectively. Besides, the “Ratio IC50” value in the experiment on MCF7 [3] is listed as 12.8.

On to `Oc1ccc(CN[C@@H]2CCCC[C@H]2NCc2ccc(O)c(O)c2)cc1O`, for which the IC50 in the experiment on MCF7 [1] stood at 2.5 µM; in [2], 32 µM; in experiment [4], 3.3 µM; in the experiment on NCI-H460, 0.9 µM; in the experiment with MDA-MB-453 [6], 1.8 µM; in the experiment with MDA-MB-231, 1.4 µM. For the same compound, half-maximal inhibition in the experiment with MDA-MB-468 (IC50) was put at 1.2 µM. In addition, the “Ratio IC50” value in the experiment on MCF7 [3] amounted to 12.8; in [5], 9.7.

In the case of `Cc1ccc(O)c(CN[C@@H]2CCCC[C@H]2NCc2cc(C)ccc2O)c1`, the IC50 was found to be 3.6 µM in the experiment with MCF7 [1] and 37 µM in experiment [2]. Moreover, the “Ratio IC50” value in the experiment with MCF7 [3] was found to be 10.3.
